Data reported in patent US20250066386A1, “INHIBITORS OF KRAS” (BIOMEA FUSION, INC., priority 2022, published 2025).
pIC50: −log10 of the molar value. Like-named read-outs stand apart in the source and are kept apart here.

Tested on: human KRAS G12C mutated cell line MIA PaCa-2
Test: KRas G12C in vitro inhibitory activity: cell proliferation, CellTiter-Glo
Type: cell-based
Text: The present example evaluates the ability of compounds provided herein to inhibit proliferation of KRAS mutant cells.
The inhibitory effect on cell proliferation was investigated in the human KRAS G12C mutated cell line MIA PaCa-2 (Yunis et al., 1977, Int. J. Cancer 19(1):128-135; ATCC catalog no. CRL-1420). Cells were maintained in RPMI-1640 medium (ThermoFisher catalog no. 61870036) supplemented with 10% of Heat Inactivated FBS (ThermoFisher catalog no. A31605) and 1% Pen-Strep (ThermoFisher catalog no. 10378016) and cultured at 37° C. in a humidified incubator with 5% CO2. Cells were grown by adhering to culture flasks, and maintained at 70%-80% confluency.
ATP is present in all metabolically active cells and is considered as a marker for viable cells. The number of metabolically active live cells in culture was determined using the CellTiter-Glo kit (Promega catalog no. G7572), an ATP monitoring system based on the production of luminescence by the reaction of ATP with added UltraGlo® recombinant luciferase (Kawano et al., 2016, PLOS One, 8; 11(7):e0158888), according to the supplier's experimental recommendations. The cell proliferation assay was based on a 96 well plate format.
Test compounds were dissolved at 10 mM in DMSO (Sigma catalog no. D8418; purity >99.9%) and stored at −20° C. Eight concentrations of test compound were assessed in duplicate in an individual test occasion in parallel in the selected cell lines. MRTX-849 and AMG-510 were used as reference compounds and tested in duplicate at eight concentrations. 100% of proliferation is represented by the untreated cells (0.2% DMSO).
On the day of the experiment (TO), cells were detached with TrypLE (ThermoFisher catalog no. 12604054), quantified using the cell viability analyser NucleoCounter (Chemometec NC-200) and resuspended in fresh medium at a cell density of about 5000 cells per 200 μL medium. 200 μL of cell suspension were added to each well of a 96 well plate.
Two hours after seeding cells, compounds were added at desired concentrations using a D300e compound dispenser (Life Sciences Tecan D300) with shaking after each compound addition. Assay plates were incubated at 37° C. in a humidified incubator with 5% CO2.
(§1) To measure 3 day inhibition of cell proliferation on day 3 (T3), assay plates were equilibrated to room temperature for approximately 15 min, and the Promega CellTiterGlo® reagent was added at 40 μL/well. Contents were mixed for 5 min on an orbital shaker to induce cell lysis, and then incubated at room temperature for an additional 10 min in the dark to stabilize the luminescent signal. Luminescence was read using a GloMax GM300 plate reader (Promega) using the luminescence for 96 well plate standard protocol.
as §1, with “measure 7” for “measure 3”, “(T3), 150 μL of growth media was removed from each well of the assay plates and replaced with 150 uL fresh growth media, and fresh compounds added using a D300e compound dispenser (Life Sciences Tecan D300) at desired concentrations with shaking between each compound addition. Assay plates were incubated at 37° C. in a humidified incubator with 5% CO2. On day 7 (T7)” for “(T3),”
Data was expressed as % of inhibition compared to the 0.2% DMSO negative no drug control, and is calculated as follows: % inhibition=100−[(RLU sample)×100/(RLU average controls*)], where * indicates the average for 0.2% DMSO.
Results were analyzed by GraphPad (Prism) and IC50 values were calculated by non-linear regression using four parameter-logistic equation. […]

[1] = Homo sapiens, MIA PaCa-2, 72 h, 3 day inhibition of cell proliferation, CellTiter-Glo luminescence, read-out: MIA PaCa-2 Day 3 IC50

Compound CCn1c(-c2cccnc2[C@H](C)OC)c2c3cc(ccc31)-c1cccc(c1)C[C@H](NC(=O)[C@H](C(C)C)N(C)C(=O)[C@H]1CCN(C(=O)C#CCN3CCOCC3)C1)C(=O)N1CCC[C@H](C1)C(=O)OCC(C)(C)C2 (atropisomer, axis not shown) [Compound 2, (3S)—N-((2S)-1-(((6^3R,4S)-1^1-ethyl-1^2-(2-((S)-1-methoxyethyl)pyridin-3-yl)-10,10-dimethyl-5,7-dioxo-1^1H-8-oxa-1(5,3)-indola-6(1,3)-piperidina-2(1,3)-benzenacycloundecaphane-4-yl)amino)-3-methyl-1-oxobutan-2-yl)-N-methyl-1-(4-morpholinobut-2-ynoyl)pyrrolidine-3-carboxamide] has a pIC50 (7 day inhibition of cell proliferation, medium and compound renewed on day 3, CellTiter-Glo luminescence, read-out: MIA PaCa-2 Day 7 IC50) of less than 7.00 and a pIC50 [1] of less than 7.00.

For CCn1c(-c2cccnc2[C@H](C)OC)c2c3cc(ccc31)-c1cccc(c1)C[C@H](NC(=O)[C@H](C(C)C)N(C)C(=O)[C@H]1CCN(C/C=C/C(=O)N(C)C)C1)C(=O)N1CCC[C@H](N1)C(=O)OCC(C)(C)C2 (atropisomer, axis not shown) [Compound 101, (3S)-1-((E)-4-(dimethylamino)-4-oxobut-2-en-1-yl)-N-((2S)-1-(((6^3S,4S)-1^1-ethyl-1^2-(2-((S)-1-methoxyethyl)pyridin-3-yl)-10,10-dimethyl-5,7-dioxo-6^1,6^2,6^3,6^4,6^5,6^6-hexahydro-1^1H-8-oxa-1(5,3)-indola-6(1,3)-pyridazina-2(1,3)-benzenacycloundecaphane-4-yl)amino)-3-methyl-1-oxobutan-2-yl)-N-methylpyrrolidine-3-carboxamide], the pIC50 [1] was 7.00 to 8.00 and the pIC50 (Homo sapiens, MIA PaCa-2, 7 day inhibition of cell proliferation, medium and compound renewed on day 3, CellTiter-Glo luminescence, read-out: MIA PaCa-2 Day 7 IC50) was 7.00 to 8.00.

CCn1c(-c2cccnc2[C@H](C)OC)c2c3cc(ccc31)-c1cccc(c1)C[C@H](NC(=O)[C@H](C(C)C)N(C)C(=O)[C@H]1CCN(C(=O)C#CCN(C)C)C1)C(=O)N1CC[C@@H](C1)C(=O)OCC(C)(C)C2 (atropisomer, axis not shown) [Compound 102, (3S)-1-(4-(dimethylamino)but-2-ynoyl)-N-((2S)-1-(((6^3S,4S)-1^1-ethyl-1^2-(2-((S)-1-methoxyethyl)pyridin-3-yl)-10,10-dimethyl-5,7-dioxo-1^1H-8-oxa-1(5,3)-indola-6(1,3)-pyrrolidina-2(1,3)-benzenacycloundecaphane-4-yl)amino)-3-methyl-1-oxobutan-2-yl)-N-methylpyrrolidine-3-carboxamide] was tested, and the pIC50 [1] was less than 7.00.

Compound CCn1c(-c2cccnc2[C@H](C)OC)c2c3cc(ccc31)-c1cccc(c1)C[C@H](NC(=O)[C@H](C(C)C)N(C)C(=O)[C@H]1CCN(C(=O)C#CCN(C)C)C1)C(=O)N1CC[C@H](C1)C(=O)OCC(C)(C)C2 (atropisomer, axis not shown) [Compound 103, (3S)-1-(4-(dimethylamino)but-2-ynoyl)-N-((2S)-1-(((6^3R,4S)-1^1-ethyl-1^2-(2-((S)-1-methoxyethyl)pyridin-3-yl)-10,10-dimethyl-5,7-dioxo-1^1H-8-oxa-1(5,3)-indola-6(1,3)-pyrrolidina-2(1,3)-benzenacycloundecaphane-4-yl)amino)-3-methyl-1-oxobutan-2-yl)-N-methylpyrrolidine-3-carboxamide] has a pIC50 [1] of less than 7.00.

For CCn1c(-c2cccnc2[C@H](C)OC)c2c3cc(ccc31)-c1cccc(c1)C[C@H](NC(=O)[C@H](C(C)C)N(C)C(=O)C1CCN(CC#CC(=O)N(C)C)CC1)C(=O)N1CCC[C@H](N1)C(=O)OCC(C)(C)C2 (atropisomer, axis not shown) [Compound 109, 1-(4-(dimethylamino)-4-oxobut-2-yn-1-yl)-N-((2S)-1-(((6^3S,4S)-1^1-ethyl-1^2-(2-((S)-1-methoxyethyl)pyridin-3-yl)-10,10-dimethyl-5,7-dioxo-6^1,6^2,6^3,6^4,6^5,6^6-hexahydro-1^1H-8-oxa-1(5,3)-indola-6(1,3)-pyridazina-2(1,3)-benzenacycloundecaphane-4-yl)amino)-3-methyl-1-oxobutan-2-yl)-N-methylpiperidine-4-carboxamide], the pIC50 [1] was 8.00 to 9.00.

Compound CCn1c(-c2cccnc2[C@H](C)OC)c2c3cc(ccc31)-c1cccc(c1)C[C@H](NC(=O)[C@H](C(C)C)N(C)C(=O)[C@H]1CCN(C/C=C/C(=O)N3CC(F)C3)C1)C(=O)N1CCC[C@H](N1)C(=O)OCC(C)(C)C2 (atropisomer, axis not shown) [Compound 110, (3S)—N-((2S)-1-(((6^3S,4S)-1^1-ethyl-1^2-(2-((S)-1-methoxyethyl)pyridin-3-yl)-10,10-dimethyl-5,7-dioxo-6^1,6^2,6^3,6^4,6^5,6^6-hexahydro-1^1H-8-oxa-1(5,3)-indola-6(1,3)-pyridazina-2(1,3)-benzenacycloundecaphane-4-yl)amino)-3-methyl-1-oxobutan-2-yl)-1-((E)-4-(3-fluoroazetidin-1-yl)-4-oxobut-2-en-1-yl)-N-methylpyrrolidine-3-carboxamide] has a pIC50 [1] greater than 9.00.

In the case of CCn1c(-c2cccnc2[C@H](C)OC)c2c3cc(ccc31)-c1csc(n1)C[C@H](NC(=O)[C@H](C(C)C)N(C)C(=O)[C@H]1CCN(C/C=C/C(=O)N(C)C)C1)C(=O)N1CCC[C@H](N1)C(=O)OCC(C)(C)C2 (atropisomer, axis not shown) [Compound 111, (3S)-1-((E)-4-(dimethylamino)-4-oxobut-2-en-1-yl)-N-((2S)-1-(((6^3S,4S,Z)-1^1-ethyl-1^2-(2-((S)-1-methoxyethyl)pyridin-3-yl)-10,10-dimethyl-5,7-dioxo-6^1,6^2,6^3,6^4,6^5,6^6-hexahydro-1^1H-8-oxa-2(4,2)-thiazola-1(5,3)-indola-6(1,3)-pyridazinacycloundecaphane-4-yl)amino)-3-methyl-1-oxobutan-2-yl)-N-methylpyrrolidine-3-carboxamide], the pIC50 [1] was 7.00 to 8.00.

Work on CCn1c(-c2cccnc2[C@H](C)OC)c2c3cc(ccc31)-c1csc(n1)C[C@H](NC(=O)[C@H](C(C)C)N(C)C(=O)[C@H]1CCN(CC#CC(=O)N(C)C)C1)C(=O)N1CCC[C@H](N1)C(=O)OCC(C)(C)C2 (atropisomer, axis not shown) [Compound 113, (3S)-1-(4-(dimethylamino)-4-oxobut-2-yn-1-yl)-N-((2S)-1-(((6^3S,4S,Z)-1^1-ethyl-1^2-(2-((S)-1-methoxyethyl)pyridin-3-yl)-10,10-dimethyl-5,7-dioxo-6^1,6^2,6^3,6^4,6^5,6^6-hexahydro-1^1H-8-oxa-2(4,2)-thiazola-1(5,3)-indola-6(1,3)-pyridazinacycloundecaphane-4-yl)amino)-3-methyl-1-oxobutan-2-yl)-N-methylpyrrolidine-3-carboxamide] yielded a pIC50 [1] greater than 9.00.

With CCn1c(-c2cccnc2[C@H](C)OC)c2c3cc(ccc31)-c1cccc(c1)C[C@H](NC(=O)[C@H](C(C)C)N(C)C(=O)[C@H]1CCN(C/C=C/C(=O)N3CC(F)(F)C3)C1)C(=O)N1CCC[C@H](N1)C(=O)OCC(C)(C)C2 (atropisomer, axis not shown) [Compound 115, (3S)-1-((E)-4-(3,3-difluoroazetidin-1-yl)-4-oxobut-2-en-1-yl)-N-((2S)-1-(((6^3S,4S)-1^1-ethyl-1^2-(2-((S)-1-methoxyethyl)pyridin-3-yl)-10,10-dimethyl-5,7-dioxo-6^1,6^2,6^3,6^4,6^5,6^6-hexahydro-1^1H-8-oxa-1(5,3)-indola-6(1,3)-pyridazina-2(1,3)-benzenacycloundecaphane-4-yl)amino)-3-methyl-1-oxobutan-2-yl)-N-methylpyrrolidine-3-carboxamide] the pIC50 [1] was greater than 9.00.
